This is an account of results in publication PMC6321124, “Hydrophilic Linear Peptide with Histidine and Lysine Residues as a Key Factor Affecting Antifungal Activity” (International Journal of Molecular Sciences, 2018).

Values after ≈ are worked out from the molar mass of the structure shown.

Data set [1] concerns C. albicans cells. Briefly: Intracellular ROS (DCFH-DA, flow cytometry). Format: cell-based. As to conditions: peptides at MICs or 10 mM H2O2 for 6 h, DCFH-DA 20 min. On the procedure: DCF fluorescence was measured using 5000 events/sample following excitation with a 488-nm wavelength laser and reading through a 525/40 biopass filter using a CytoFLEX flow cytometer.
On the technique in general: In flow cytometry, cells or beads pass a laser one at a time.

The subject of data set [2] is F. oxysporum (KCTC 16909). The settings on record: KCTC 16909, 48 h, pH 6.
For data set [3], the system named is F. graminearum (KCTC 16656). The settings on record: KCTC 16656, 48 h, pH 6.
The test system of data set [4] is C. krusei (CCARM 14017). As to conditions: CCARM 14017, 48 h, pH 6.
For data set [5], the system named is C. albicans (CCARM 14001, fluconazole-resistant strain). As to conditions: CCARM 14001, 48 h, pH 6.
Data set [6] has as its system C. albicans (CCARM 14020, fluconazole-resistant strain). The settings on record: CCARM 14020, 48 h, pH 6.
For data set [7], the system named is HaCaT cells. Briefly: Cytotoxicity (MTT assay). Format: cell-based. As to conditions: at 3.13 µM, 24 h. For orientation: Formazan colour is commonly taken as a measure of viable cells.
Data set [8] deals with C. albicans (KCTC 7270). As to conditions: KCTC 7270, 48 h, pH 6.
In data set [9] the test system is C. albicans (CCARM 14007, amphotericin B-resistant strain). As to conditions: CCARM 14007, 48 h, pH 6.
Data set [10] relates to C. gloeosporioides (KCTC 6169). As to conditions: KCTC 6169, 48 h, pH 6.
Data set [11] has as its system Trichoderma viride (KCTC 16992). As to conditions: KCTC 16992, 48 h, pH 6.
Data set [12] can be described thus: Calcein leakage, artificial mammalian model membrane. The settings on record: PC/Ch/SM (1:1:1) LUVs, 10 μM lipids. On the procedure: The dried lipids were prehydrated with dye buffer solution (80 mM calcein, 10 mM MES, 50 mM NaCl, pH 6.2), vortexed for 1 min, and incubated for 30 min at 50 °C. The suspension was freeze-thawed in liquid nitrogen for nine cycles to generate large unilamellar vesicles (LUVs) and extruded 30 times through polycarbonate filters (two stacked 0.2-μm pore-size filters) using an Avanti Mini-Extruder (Avanti Polar Lipids Inc., Alabaster, AL, USA). Calcein-entrapped vesicles were separated from free calcein by gel filtration chromatography on a Sephadex G-50 column. Entrapped LUVs in suspensions containing 10 μM lipids were incubated with various concentrations of the peptide. The fluorescence of the released calcein was assessed with a microtiter SpectraMax M5 reader at an excitation wavelength of 480 nm and an emission wavelength of 520 nm. Complete (100%) release was achieved via the addition of Triton X-100 to a final concentration of 0.1% (v/v). The apparent percentage of calcein release was calculated in accordance with the following equation: Release (%) = 100 × (F − F0)/(Ft − F0) (2) where F and Ft represent the fluorescence intensity after the addition of the peptides and Triton X-100, respectively, and F0 represents the fluorescence of the intact vesicles.

Data set [13] deals with F. moniliforme (KCTC 6149). The settings on record: KCTC 6149, 48 h, pH 6.
Data set [14] concerns Tricophyton rubrum (KCTC 6345). The settings on record: KCTC 6345, 48 h, pH 6.
In data set [15] the test system is C. parapsilosis (CCARM 14016). The settings on record: CCARM 14016, 48 h, pH 6.
For data set [16], the system named is Aspergillus flavus (KCTC 6905). As to conditions: KCTC 6905, 48 h, pH 6.
Data set [17] deals with Trichoderma virens (KCTC 16924). As to conditions: KCTC 16924, 48 h, pH 6.
The subject of data set [18] is F. solani (KCTC 6326). The settings on record: KCTC 6326, 48 h, pH 6.
In data set [19] the test system is C. albicans (CCARM 14004, fluconazole-resistant strain). The settings on record: CCARM 14004, 48 h, pH 6.
Data set [20] relates to drug-resistant C. albicans strains (CCARM 14001, 14004, 14007, and 14020). It counts as cell-based. The settings on record: at 256 µM; CCARM 14001, 14004, 14007, 14020; data not shown.
Data set [21] relates to C. albicans. The settings on record: peptides at MICs for 6 h, measured at 550 nm.
For data set [22], the system named is C. albicans cells. The data set can be described thus: SYTOX Green uptake (flow cytometry). Format: cell-based. The settings on record: peptides at MICs for 30 min, 0.5 μM SYTOX Green pre-incubated 15 min. On the procedure: C. albicans cells were pre-incubated with 0.5 μM SYTOX Green for 15 min in the dark, incubated with the indicated peptides at MICs for 30 min, and then analyzed using a CytoFLEX flow cytometer (Beckman Coulter Inc., Brea, CA, USA).

As to `OO` [H2O2], the “intracellular ROS generation” value in data set [1] is “high levels of ROS generation”.
For orientation: MIC means the smallest concentration in the dilution series that meets the test's criterion for growth inhibition. Regarding `CC[C@H](C)[C@H](NC(=O)CN)C(=O)NCC(=O)N[C@@H](C)C(=O)N[C@H](C(=O)N[C@@H](CC(C)C)C(=O)N[C@@H](CCCCN)C(=O)N[C@H](C(=O)N[C@@H](CC(C)C)C(=O)N[C@H](C(=O)N[C@H](C(=O)NCC(=O)N[C@@H](CC(C)C)C(=O)N1CCC[C@H]1C(=O)N[C@@H](C)C(=O)N[C@@H](CC(C)C)C(=O)N[C@H](C(=O)N[C@@H](CO)C(=O)N[C@@H](Cc1c[nH]c2ccccc12)C(=O)N[C@H](C(=O)N[C@@H](CCCCN)C(=O)N[C@@H](CCCNC(=N)N)C(=O)N[C@@H](CCCCN)C(=O)N[C@@H](CCCNC(=N)N)C(=O)N[C@@H](CCC(N)=O)C(=O)N[C@@H](CCC(N)=O)C(N)=O)[C@@H](C)CC)[C@@H](C)CC)[C@@H](C)O)[C@@H](C)O)C(C)C)C(C)C` [Melittin, melittin, reference compound], the MIC in data set [2], in data set [3], in data set [4], in data set [5], in data set [6] and in data set [8] was 8 µM (≈ 22.8 µg/mL) each time. Besides, the MIC in data set [9] stood at 8 µM (≈ 22.8 µg/mL); in data set [10] it was 16 µM (≈ 45.5 µg/mL); in data set [11], 4 µM (≈ 11.4 µg/mL); in data set [13] it was 8 µM (≈ 22.8 µg/mL); in data set [14], 8 µM (≈ 22.8 µg/mL); in data set [15], 8 µM (≈ 22.8 µg/mL). The minimal inhibitory concentration (MIC) in data set [16] is recorded as 8 µM (≈ 22.8 µg/mL); in data set [17], 32 µM (≈ 91.1 µg/mL); in data set [18], 8 µM (≈ 22.8 µg/mL); in data set [19], 8 µM (≈ 22.8 µg/mL). The same compound yielded a cell death in data set [7] of 100%. In addition, the “calcein leakage from mammalian artificial liposomes (in words)” value in [12] was “concentration-dependent calcein leakage”.
With `OC(Cn1cncn1)(Cn1cncn1)c1ccc(F)cc1F` [fluconazole], the “antifungal activity against drug-resistant C. albicans strains” value in data set [20] was “inactive”.
For histatin 5, the “relative cytochrome c levels in the cytosol” value in data set [21] is “only minor alterations”. The “SYTOX Green uptake (membrane permeabilization)” value in data set [22] is “did not induce membrane damage”.
